Data set [1] is described as follows: Metabolic stability in dog liver microsomes assessed as compound remaining at 1 uM preincubated for 5 mins followed by NADPH addition and measured after 30 mins by LC-MS/MS analysis. The format is ADME, Canis lupus familiaris, Microsome. As to conditions: read-out: Stability. In general terms: Liver microsomes are a subcellular fraction often used to study metabolism.

A short description of data set [2]: Half life in Beagle dog at 1 mg/kg, iv after 0.083 to 144 hrs by LC-MS/MS analysis. As to conditions: in vivo. The format is ADME, organism-based, Canis lupus familiaris.
The nature of data set [3]: Drug metabolism in rat liver microsomes assessed as metabolic rate at 1 uM preincubated for 5 mins followed by NADPH addition after 30 mins by LC-MS/MS analysis. The format is ADME, Microsome. As to conditions: 0.5 h.
Data set [4] is described as follows: Metabolic stability in rat liver microsomes assessed as compound remaining at 1 uM preincubated for 5 mins followed by NADPH addition and measured after 30 mins by LC-MS/MS analysis. As to conditions: read-out: Stability. The format is ADME, Microsome.
Data set [5] can be described thus: Volume of distribution at steady state in Wistar rat at 1 mg/kg, iv after 0.083 to 144 hrs by LC-MS/MS analysis. The format is ADME, organism-based. The settings on record: in vivo, read-out: Vdss.
A short description of data set [6]: Oral bioavailability in Wistar rat at 10 mg/kg after 0.25 to 144 hrs by LC-MS/MS analysis. The format is ADME, organism-based. The settings on record: in vivo.
Data set [7] can be described thus: Drug metabolism in dog liver microsomes assessed as metabolic rate at 1 uM preincubated for 5 mins followed by NADPH addition after 30 mins by LC-MS/MS analysis. As to conditions: 0.5 h. The format is ADME, Canis lupus familiaris, Microsome.
Data set [8] in a line: Protein binding in human plasma at 5 uM incubated for 16 hrs under shaking condition by LC/MS/MS based rapid equilibrium dialysis method. The format is ADME, cell-free. The settings on record: read-out: PPB (converted).
A short description of data set [9]: Tmax in Beagle dog at 10 mg/kg, po after 0.25 to 144 hrs by LC-MS/MS analysis. The format is ADME, organism-based, Canis lupus familiaris. The settings on record: in vivo.
Data set [10] has as its target Neuronal acetylcholine receptor subunit alpha-7 (Homo sapiens, UniProt P36544). Briefly: Positive allosteric modulatory activity against alpha7 nAChR in human IMR-32 cells assessed as potentiation of PNU-282987-induced Ca2+ […] at 1 uM by FLIPR assay relative to control. The format is cell-based.
Data set [11] can be described thus: Volume of distribution at steady state in Beagle dog at 1 mg/kg, iv after 0.083 to 144 hrs by LC-MS/MS analysis. As to conditions: in vivo, read-out: Vdss. The format is ADME, organism-based, Canis lupus familiaris.
Data set [12] is described as follows: Cmax in Wistar rat at 10 mg/kg, po after 0.25 to 144 hrs by LC-MS/MS analysis. The settings on record: in vivo. The format is ADME, organism-based. On the set-up: dose 10 mg/kg, route oral.
A short description of data set [13]: Half life in Wistar rat at 1 mg/kg, iv after 0.083 to 144 hrs by LC-MS/MS analysis. The format is ADME, organism-based. As to conditions: in vivo.
The nature of data set [14]: Cmax in Beagle dog at 10 mg/kg, po after 0.25 to 144 hrs by LC-MS/MS analysis. The format is ADME, organism-based, Canis lupus familiaris. On the set-up: dose 10 mg/kg, route oral. As to conditions: in vivo.
Data set [15] is described as follows: AUClast in Beagle dog at 1 mg/kg, iv after 0.083 to 144 hrs by LC-MS/MS analysis. The format is ADME, organism-based, Canis lupus familiaris. On the set-up: dose 1 mg/kg, time 0.083-144 hr, route intravenous. The settings on record: in vivo.
A short description of data set [16]: Metabolic stability in human pooled liver microsomes assessed as compound remaining at 1 uM preincubated for 5 mins followed by NADPH addition and measured after 30 mins by LC-MS/MS analysis. The format is ADME, Microsome. As to conditions: read-out: Stability.
Data set [17] is described as follows: Drug metabolism in mouse liver microsomes assessed as metabolic rate at 1 uM preincubated for 5 mins followed by NADPH addition after 30 mins by LC-MS/MS analysis. As to conditions: 0.5 h. The format is ADME, Microsome.
Data set [18] in a line: Metabolic stability in mouse liver microsomes assessed as compound remaining at 1 uM preincubated for 5 mins followed by NADPH addition and measured after 30 mins by LC-MS/MS analysis. The format is ADME, Microsome. The settings on record: read-out: Stability.
The nature of data set [19]: AUC (0 to 144 hrs) in Wistar rat at 1 mg/kg, iv after 0.083 to 144 hrs by LC-MS/MS analysis. The format is ADME, organism-based. On the set-up: time < 144 hr, dose 1 mg/kg, route intravenous. The settings on record: in vivo.
A short description of data set [20]: Cmax in Wistar rat at 1 mg/kg, iv after 0.083 to 144 hrs by LC-MS/MS analysis. As to conditions: in vivo. The format is ADME, organism-based. Also on record: dose 1 mg/kg, route intravenous.
The nature of data set [21]: Tmax in Wistar rat at 10 mg/kg, po after 0.25 to 144 hrs by LC-MS/MS analysis. The format is ADME, organism-based. The settings on record: in vivo.
Data set [22] can be described thus: AUC (0 to 144 hrs) in Wistar rat at 10 mg/kg, po after 0.25 to 144 hrs by LC-MS/MS analysis. The format is ADME, organism-based. On the set-up: dose 10 mg/kg, time < 144 hr, route oral. As to conditions: in vivo.
Data set [23] in a line: AUClast in Beagle dog at 10 mg/kg, po after 0.25 to 144 hrs by LC-MS/MS analysis. The format is ADME, organism-based, Canis lupus familiaris. On the set-up: time upper 144 hr, dose 10 mg/kg, time lower 0.25 hr, route oral. The settings on record: in vivo.
A short description of data set [24]: Oral bioavailability in Beagle dog at 10 mg/kg after 0.25 to 144 hrs by LC-MS/MS analysis. The format is ADME, organism-based, Canis lupus familiaris. The settings on record: in vivo.
Data set [25] can be described thus: Metabolic stability in monkey liver microsomes assessed as compound remaining at 1 uM preincubated for 5 mins followed by NADPH addition and measured after 30 mins by LC-MS/MS analysis. As to conditions: rhesus monkey, read-out: Stability. The format is ADME, Macaca mulatta, Microsome.
Data set [26] in a line: Drug metabolism in human pooled liver microsomes assessed as metabolic rate at 1 uM preincubated for 5 mins followed by NADPH addition after 30 mins by LC-MS/MS analysis. The settings on record: 0.5 h. The format is ADME, Microsome.
The nature of data set [27]: Tmax in Beagle dog at 1 mg/kg, iv after 0.083 to 144 hrs by LC-MS/MS analysis. The format is ADME, organism-based, Canis lupus familiaris. The settings on record: in vivo.
A short description of data set [28]: Tmax in Wistar rat at 1 mg/kg, iv after 0.083 to 144 hrs by LC-MS/MS analysis. The format is ADME, organism-based. The settings on record: in vivo.
Data set [29] is described as follows: Clearance in Wistar rat at 1 mg/kg, iv after 0.083 to 144 hrs by LC-MS/MS analysis. The format is ADME, organism-based. The settings on record: Wistar, in vivo.
Data set [30] can be described thus: Drug metabolism in monkey liver microsomes assessed as metabolic rate at 1 uM preincubated for 5 mins followed by NADPH addition after 30 mins by LC-MS/MS analysis. The format is ADME, Macaca mulatta, Microsome. As to conditions: rhesus monkey, 0.5 h.
A short description of data set [31]: Protein binding in rat plasma at 5 uM incubated for 16 hrs under shaking condition by LC/MS/MS based rapid equilibrium dialysis method. The format is ADME, cell-free. As to conditions: read-out: PPB (converted).
A short description of data set [32]: Clearance in Beagle dog at 1 mg/kg, iv after 0.083 to 144 hrs by LC-MS/MS analysis. The format is ADME, organism-based, Canis lupus familiaris. As to conditions: Beagle, in vivo.
The nature of data set [33]: Cmax in Beagle dog at 1 mg/kg, iv after 0.083 to 144 hrs by LC-MS/MS analysis. The format is ADME, organism-based, Canis lupus familiaris. On the set-up: dose 1 mg/kg, route intravenous. As to conditions: in vivo.

SMILES strings stand for the structures.

Sequence of Neuronal acetylcholine receptor subunit alpha-7 (P36544 whole entry): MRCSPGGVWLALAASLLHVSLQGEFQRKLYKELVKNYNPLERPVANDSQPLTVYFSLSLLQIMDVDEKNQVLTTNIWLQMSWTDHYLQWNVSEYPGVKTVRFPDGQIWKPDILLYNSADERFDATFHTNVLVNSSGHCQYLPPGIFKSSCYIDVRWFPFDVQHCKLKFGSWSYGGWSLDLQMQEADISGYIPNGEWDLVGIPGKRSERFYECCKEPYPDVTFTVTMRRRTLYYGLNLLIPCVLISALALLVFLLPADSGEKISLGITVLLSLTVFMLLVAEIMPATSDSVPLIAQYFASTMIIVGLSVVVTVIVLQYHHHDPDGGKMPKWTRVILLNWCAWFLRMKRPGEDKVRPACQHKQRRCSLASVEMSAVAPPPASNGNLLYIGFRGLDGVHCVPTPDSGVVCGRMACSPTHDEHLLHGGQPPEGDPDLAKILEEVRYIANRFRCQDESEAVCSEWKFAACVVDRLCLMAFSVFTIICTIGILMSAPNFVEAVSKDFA

In the case of `CCC(=O)c1sc(-c2ccc(OC)cc2)c(C)c1-c1ccc(S(N)(=O)=O)cc1`, the remaining at 0.5 h, 1 µM was 84% in data set [1]; 97% in [4]; 81% in data set [16]; 78% in [18]; 67% in [25]. Besides, the half-life in [2] is 2 h; in data set [13] it was 1.4 h. In addition, the Drug metabolism is reported as 0.01 nmol/min/mg in data set [3]; 0.02 nmol/min/mg in data set [7]; 0.03 nmol/min/mg in data set [17]; 0.03 nmol/min/mg in data set [26]; 0.05 nmol/min/mg in data set [30]. In addition, the figures for the Vd in data set [5] and in data set [11] were 3 L/kg and 2 L/kg, respectively. Moreover, the figures for the bioavailability in [6] and in data set [24] were 63% and 4%, respectively. For the same compound, the fraction unbound at 16 h, 5 µM in data set [8] was 0.002; in [31], 0.003. The time of peak concentration (Tmax) in [9] turned out to be 1.17 h; in data set [21], 2 h; in data set [27], 0.25 h; in data set [28], 4.8 min. Besides, the fold change (FC) in data set [10] came out at 22. The highest concentration (Cmax) in data set [12] amounted to 3000 nM; in data set [14], 400 nM; in data set [20], 900 nM; in data set [33], 2300 nM. Moreover, the AUC(0-t) in [15] was found to be 3.2 µM·h; in data set [23], 1.3 µM·h. The figures for the exposure AUC(0-t) at 144 h in [19] and in data set [22] were 1.3 µM·h and 8.2 µM·h, respectively. The clearance in data set [29] came out at 31 mL/min/kg; in data set [32], 12 mL/min/kg.

For the compound `CCC(=O)c1sc(-c2ccc(N(C)C)cc2)c(C)c1-c1ccc(S(N)(=O)=O)cc1`, the fold change (FC) in data set [10] turned out to be 19.

Regarding `CCC(=O)c1sc(-c2ccncc2)c(C)c1-c1ccc(S(N)(=O)=O)cc1`, the fold change (FC) in data set [10] is 1.

For `CC(=O)c1sc(-c2ccc(Cl)cc2)c(C)c1-c1ccc(S(N)(=O)=O)cc1`, the fold change (FC) in data set [10] amounted to 7.

In the case of `CCC(=O)c1sc(-c2cccc(Cl)c2)c(C)c1-c1ccc(S(N)(=O)=O)cc1`, in data set [10], the fold change (FC) worked out at 1.

Turning to `CCC(=O)c1sc(-c2ccccc2)c(C)c1-c1ccc(S(N)(=O)=O)cc1`, in [10], the fold change (FC) was found to be 2.4.

As to `CCC(=O)c1sc(-c2ccc(C(F)(F)F)cc2)c(C)c1-c1ccc(S(N)(=O)=O)cc1`, the fold change (FC) in data set [10] was 15.3.

On to `Cc1c(-c2ccc(Cl)cc2)sc(C(=O)N(C)C)c1-c1ccc(S(N)(=O)=O)cc1`, for which the fold change (FC) in data set [10] came out at 1.

Consider `CCC(=O)c1sc(-c2ccc(Cl)cc2Cl)c(C)c1-c1ccc(S(N)(=O)=O)cc1`, for which the fold change (FC) in data set [10] was found to be 12.

For the compound `CCC(=O)c1sc(-c2ccoc2)c(C)c1-c1ccc(S(N)(=O)=O)cc1`, the fold change (FC) in [10] worked out at 1.

For the compound `CCC(=O)c1sc(-c2ccc(C(C)(C)C)cc2)c(C)c1-c1ccc(S(N)(=O)=O)cc1`, the fold change (FC) in data set [10] was found to be 1.

For `CCC(=O)c1sc(-c2ccc(F)cc2)c(C)c1-c1ccc(S(N)(=O)=O)cc1`, the fold change (FC) in data set [10] is 8.7.

Take `CCC(=O)c1sc(-c2ccc(C3CC3)cc2)c(C)c1-c1ccc(S(N)(=O)=O)cc1`: the fold change (FC) in [10] was 7.

As to `CCC(=O)c1sc(-c2ccccc2Cl)c(C)c1-c1ccc(S(N)(=O)=O)cc1`, the fold change (FC) in data set [10] is 1.

For `CCCN(CCO)C(=O)c1sc(-c2ccc(Cl)cc2)c(C)c1-c1ccc(S(N)(=O)=O)cc1`, the fold change (FC) in data set [10] is 1.

Turning to `CCOc1ccc(-c2sc(C(=O)CC)c(-c3ccc(S(N)(=O)=O)cc3)c2C)cc1`, the fold change (FC) in data set [10] was 6.

As to `Cc1c(-c2ccc(Cl)cc2)sc(C(=O)N2CCCCC2)c1-c1ccc(S(N)(=O)=O)cc1`, in data set [10], the fold change (FC) was 1.

In general, half-life refers to how long it takes for the measured level to halve. Usually bioavailability stands for the share of a dose that reaches the circulation, judged against a reference dose that is usually intravenous. The term Tmax denotes the time at which the peak concentration occurs. The Cmax is the peak of the concentration-time curve. What is called AUC(0-t) is exposure summed from dosing to a finite time, without extrapolation to infinity. The term clearance denotes the volume of plasma or blood freed of the substance per unit of time.

Values taken from ChEMBL document CHEMBL4354827, “Discovery of Novel, Potent, Brain-Permeable, and Orally Efficacious Positive Allosteric Modulator of α7 Nicotinic Acetylcholine Receptor [4-(5-(4-Chlorophenyl)-4-methyl-2-propionylthiophen-3-yl)benzenesulfonamide]: Structure-Activity Relationship and Preclinical Characterization” (J Med Chem, 2020).
